According to ChEMBL document CHEMBL1136693, “Aryl tetrahydropyridine inhibitors of farnesyltransferase: glycine, phenylalanine and histidine derivatives” (Bioorg Med Chem Lett, 2003):

target: Protein farnesyltransferase (Mus musculus, UniProt Q61239+Q8K2I1); assay: Inhibition of Ras farnesylation in Human Ha-Ras-transformed BALB/c 3T3 cells; type: functional, cell-based

EC50	SMILES
> 100 nM	CN(Cc1ccc(C#N)cc1)[C@H](Cc1cncn1C)C(=O)N1CCC(C#N)=C(c2cccc3ccccc23)C1
190 nM	Cn1cncc1C[C@@H](NCc1ccc(C#N)cc1)C(=O)N1CCC(C#N)=C(c2cccc3ccccc23)C1
16 nM	CCCCN(CCC1CCCCC1)Cc1ccc(C(=O)N[C@@H](CCSC)C(=O)O)c(-c2ccccc2C)c1

target: Protein farnesyl/geranylgeranyl transferase (Homo sapiens) (UniProt P49354+P49356+P53609); assay: Selectivity for farnesyl over geranylgeranyl transferase; type: protein-complex assay

Selectivity	SMILES
75000	CCCCN(CCC1CCCCC1)Cc1ccc(C(=O)N[C@@H](CCSC)C(=O)O)c(-c2ccccc2C)c1

target: Geranylgeranyl transferase type I (Homo sapiens, UniProt P49354+P53609); assay: In vitro inhibitory activity against geranylgeranyltransferase-1 (type I); type: protein-complex assay

IC50	SMILES
3500 nM	Cn1cncc1C[C@@H](NCc1ccc(C#N)cc1)C(=O)N1CCC(C#N)=C(c2cccc3ccccc23)C1

target: Protein farnesyltransferase (Homo sapiens, UniProt P49354+P49356); assay: In vitro inhibitory activity against farnesyl transferase; type: protein-complex assay

SMILES	IC50
Cn1cncc1CN[C@@H](Cc1ccc(C#N)cc1)C(=O)N1CCC(C#N)=C(c2cccc3ccccc23)C1	310 nM
Cn1cncc1C[C@H](NCc1ccc(C#N)cc1)C(=O)N1CCC(C#N)=C(c2cccc3ccccc23)C1	130 nM
Cn1cncc1CN(CC(=O)N1CCC(C#N)=C(c2cccc3ccccc23)C1)Cc1ccccc1	280 nM

Continued, values first:

IC50	SMILES
560 nM	Cn1cncc1CN(CC(=O)N1CCC(C#N)=C(c2cccc3ccccc23)C1)Cc1ccc(C#N)cc1
0.71 nM	CSCC[C@H](NC(=O)C1=C(c2ccccc2C)CN(C(=O)OC(CCC2CCCCC2)c2cncs2)CC1)C(=O)O (some centres not stated)
0.56 nM	CSCC[C@H](NC(=O)C1=C(c2ccccc2C)CN(C(=O)N(Cc2ccccc2)Cc2cncs2)CC1)C(=O)O
240 nM	Cn1cncc1CN[C@H](Cc1ccc(C#N)cc1)C(=O)N1CCC(C#N)=C(c2cccc3ccccc23)C1
